How the values were obtained:
[1] = tested on: ex vivo collagen induced platelet aggregation; assay: Inhibition of ex vivo collagen induced aggregation (compound administered to dogs); parameters: species or system dog (Beagles); key: *: not active at the dose tested; conditions: intragastric (IG) administration to dogs; collagen induced aggregation in PRP ex vivo; dose not given
Experimental: The purpose of this assay is to determine the effects of antiplatelet compounds on ex vivo collagen induced platelet aggregation when administered either intravenously or orally to dogs.
Pretreatment (control) blood samples are drawn from either conscious or anesthetized dogs (Beagles) and centrifuged to prepare platelet rich plasma (PRP). Aggregatory response to collagen is measured in a aggregometer and used as Control. Compounds are administered, either intragasterically (either by capsule or stomach tube or intravenously). Blood samples are drawn at predetermined intervals after compound administration, PRP prepared and aggregation to collagen determined. Compound inhibition of aggregation is determined by comparing the aggregation response after compound administration to the pretreatment response.

[2] = tested on: platelet aggregation in Dog PRP; assay: In-Vitro Platelet Aggregation in PRP (ADP induced); assay type: cell-based; conditions: Canis lupus familiaris, ADP 50 um final concentration
Experimental: Healthy male or female dogs were fasted for 8 hours prior to drawing blood; then 30 ml whole blood was collected using a butterfly needle and 30 cc plastic syringe with 3 ml of 0.129 M buffered sodium citrate (3.8%). The syringe was rotated carefully as blood was drawn to mix the citrate. Platelet-rich plasma (PRP) was prepared by centrifugation at 975×g for 3.17 minutes at room temperature allowing the centrifuge to coast to a stop without braking. The PRP was removed from the blood with a plastic pipette and placed in a plastic capped, 50 mL Corning conical sterile centrifuge tube which was held at room temperature. Platelet poor plasma (PPP) was prepared by centrifuging the remaining blood at 2000×g for 15 minutes at room temperature allowing the centrifuge to coast to a stop without braking. The PRP was adjusted with PPP to a count of 2-3×10^8 platelets per mL. 400 uL of the PRP preparation and 50 uL of the compounds solution to be tested or saline were preincubated for 1 minute at 37° C. in a […].). 50 uL of adenosine 5' diphosphate (ADP) (50 um final concentration) was added to the cuvettes and the aggregation was monitored for 1 minute. All compounds are tested in duplicate. Results are calculated as follows: Percent of control=[(maximal OD minus initial OD of compound) divided by (maximal OD minus initial OD of control saline)]×100. The % inhibition=100-(percent of control).
The compounds tested and their median inhibitory concentrations (IC50) are recorded in Table I. IC50 's (dosage at which 50% of platelet aggregation is inhibited) were calculated by linear regression of the dose response curve.

`N=C(N)c1ccc(NC(=O)N2CCCC(C(=O)NC(CC(=O)O)c3cccnc3)C2)cc1` (stereo not drawn) [Example 2, β-[[N-3-[[[4-(aminoiminomethyl)phenyl]amino]carbonyl]piperidylcarbonyl]amino]-3-pyridinepropanoic acid] was tested, and the “Ex Vivo Effect after IG Administration” value [1] was “*” and the IC50 ([2]; 1 min, 37° C., aggregation monitored 1 minute) was 850 nM.
`N=C(N)c1ccc(NC(=O)N2CCCC2C(=O)NC(CC(=O)O)c2cccnc2)cc1` (stereo not drawn) [Example 4, β-[[N-2-[[[4-(aminoiminomethyl)phenyl]amino]carbonyl]pyrrolidylcarbonyl]amino]-3-pyridinepropanoic acid] showed an inhibition at 10 µM ([2]; at 10^-5 M, read-out: Dog PRP % Inh.) of 30%.
Compound `N=C(N)c1ccc(NC(=O)N2CCC(C(=O)NC(CC(=O)O)c3cccnc3)CC2)cc1` (stereo not drawn) [Example 6, β-[[N-[[[4-(aminoiminomethyl)phenyl]amino]carbonyl]4-piperidylcarbonyl]amino]-3-pyridinepropanoic acid] has an inhibition at 1 µM ([2]; at 10^-6 M, read-out: Dog PRP % Inh.) of 19%.

— US6268380A, “Urea derivatives useful as platelet aggregation inhibitors” (G. D. Searle & Co., priority 1993, dated 2001)
